We go through two molecules from patent publication US20110183904A1, “METHODS AND COMPOSITIONS FOR ALTERING BEHAVIOR ASSOCIATED WITH AUTISM SPECTRUM DISORDER” (The Children's Mercy Hospital, priority 2008, published 2011).

Structures are written as SMILES. Where “and” joins values, the source holds several entries; their conditions need not be identical. Equal values may be shown once. Entries after “also recorded” stand apart in the source; their conditions may differ.

One experiment has as its system Gαs in PBMCs. The settings on record: bipolar illness and schizophrenia; cited from earlier work.
In the next experiment the test system is Gαq mRNA in PBMCs. Put plainly: Gαq mRNA in PBMCs exposed to vasopressin (real-time RT-PCR). The format is cell-based, human. How it is done: (§1) Samples were taken from the patients, as described in Example 1, and mRNA was isolated from cells exposed to vasopressin and analyzed for amount of mRNA expressing Gαs and Gαq.
(§2) Venipuncture. 3 ml/kg of blood (to a maximum of 40 cc) were drawn after a 2 hour fast between 10 am and 12 am as previously described (Modahl). EMLA (topical lidocaine cream) was placed on the antecubital region of both arms and covered with tegaderm prior to blood draw. 10 ml of blood was collected in heparinized tubes on ice until processing within 15 minutes. This aliquot was centrifuged at 4° C. at 3000 g for 20 minutes, after which the plasma was stored in 1 ml aliquots at −80° C. until further processing, at which time it was transported on dry ice to the laboratory. The remaining blood (up to 30 cc) was placed on ice and transported within 30 minutes of blood draw to the same lab. PBMC isolation, hormone treatment and cell culture. PBMCs were isolated from heparinized blood using Histopaque 1077 (Sigma-Aldrich, St. Louis, Mo.). Briefly, 5 ml of blood was diluted 1:1 in PBS and carefully layered onto 3 ml of Histopaque 1077 in a 50 ml conical centrifuge tube. Tubes were centrifuged at 400 g for 30 min at RT. The buffy coat was removed from the tube and washed three times in complete RPMI without phenol red. Cell counts and viability were determined using Trypan blue. Cell viability was >95%. Resultant PBMC's were suspended in complete RPMI with 10% charcoal stripped, dilapidated fetal calf serum (FCS) (Invitrogen, Carlsbad, Calif.) and added in 1 ml aliquots to 12 well plate with vehicle and vasopressin (10−8M) in RPMI+10% charcoal stripped, dilapidated FCS. Cells were incubated overnight (18-24 hr) before wells were harvested and rinsed. Cell suspensions were centrifuged at 500 g for 10 min at RT, and supernatant was aspirated. Buffer RLT Plus from the RNeasy Mini Plus Kit (QIAgen, Valencia, Calif.) was added to the cell pellets before vortexing to lyse cells. Samples were stored at −80° C. before RNA purification and isolation.
(§3) RNA isolation and quantitation. Samples were thawed, vortexed, and placed in QIAshredder columns. Columns were centrifuged for 2 min at 15000 g. The homogenized lysate was transferred to a gDNA Eliminator spin column and centrifuged for 30 sec at 9000 g. Equal volumes of 70% ethanol were added to the eluent. The mixture was transferred to RNeasy spin columns and centrifuged for 15 sec at 9000 g. Columns were washed with Buffer RW1 and the Buffer RPE, centrifuging for 15 sec at 9000 g, each time discarding the eluent. Buffer RPE was again added and columns centrifuged for 2 min at 9000 g to dry the column. Columns were then centrifuged for 1 min at 15000 g. RNA was eluted with the addition of Nuclease-free water and spun for 1 min at 9000 g. RNA was examined by spectrophotometry and quantitated using the Ribogreen assay (Invitrogen, Carlsbad, Calif.). Samples were diluted 1:200. Standards of 0, 20, 100, 500, and 1000 ng/ml were made from E. coli ribosomal RNA in TE buffer. Ribogreen reagent (1:200) was added to samples and standards, and samples were read on a Bio-Tek FLx800 fluorescent plate reader. RNA was diluted in nuclease-free water to a final concentration of 150 ng/ml cDNA.
(§4) cDNA construction and one-step real-time RT-PCR. Reverse transcription was performed using the SuperScript II Reverse Transcription Kit (Invitrogen, Carlsbad, Calif.). […]

In the next experiment the test system is Gαs protein in PBMCs. The experiment in a line: Gαs protein expression in PBMCs exposed to vasopressin (immunoblot). The format is cell-based, human. How it is done: (§5) Membrane preparation for membrane-associated proteins. For protein studies, PBMC's were manipulated at 4° C., as previously described in Example 4. PBMC's were individually homogenized (1:30, wt/vol) in ice-cold 0.25 M sucrose and 50 mM Tris-HCL, (pH 7.6) in a Dounce homogenizer, centrifuged twice at 800×g for 5 min before centrifugation of the supernatants at 30,000×g for 60 min. The pellet was resuspended in assay buffer and used directly in the binding assay. Protein concentration was determined by BCA protein assay kit (Pierce, Rockford, Ill.) using bovine serum albumin (BSA) as a standard.
(§6) Immunoblot analysis for membrane-associated proteins. Total membrane proteins were prepared as for receptor assays above. Samples were electrophoresed in 12% Tris-HCl resolving gels and transferred to 0.45 μm nitrocellulose membranes (Bio-Rad, Hercules, Calif.) by electroblotting. […] After three washes in TBST, membranes were incubated for 1 h in TBST and 1% non fat dry milk with horseradish peroxidase conjugated 2° antibodies (Jackson Immunoresearch, West Grove, Pa.). Bands were visualized by exposure of the membranes to autoradiographic film (MidSci, St. Louis, Mo.). The membranes were then stripped with Restore™ Western Blot Stripping Buffer (Pierce, Rockford Ill.) for 30 min at 37° C. and reprobed for actin protein as an internal control. The bands were quantified using a densitometer (GE Healthcare, Piscataway, N.J.).
(§7) Specific G protein antibodies. Specific Gαs and Gαq/11 antibodies made in rabbit without cross reactivity to other G proteins were used at a 1:500 dilution and originated from Santa Cruz Biotechnology (Santa Cruz, Calif.).

In a further experiment the test system is Gαs mRNA in PBMCs. The experiment in a line: Gαs mRNA in PBMCs exposed to vasopressin (real-time RT-PCR). The format is cell-based, human. How it is done:
as §1, §2, §3, §4

The test system of another experiment is Gαq protein in PBMCs. Put plainly: Gαq protein expression in PBMCs exposed to vasopressin (immunoblot). It is filed as cell-based, human. Set-up: Gαq protein expression, Control Vasopressin / Gαq protein expression, Average, Control Vasopressin: scale not given here. How it is done: as §5, §6, §7
Where [1] appears, read: PBMCs of individual children with ASD, vasopressin 10−8M, 18-24 hr.
The mark [2] stands for this setting: PBMCs of individual control children, vasopressin 10−8M, 18-24 hr.
Where [3] appears, read: average of autism group, vasopressin 10−8M.
Setting [4] is: average of control group, vasopressin 10−8M.
Where [5] appears, read: ASD versus without ASD, both exposed to vasopressin.
The mark [6] stands for this setting: PBMCs of individual children with ASD, immunoblot densitometry.
Where [7] appears, read: PBMCs of individual control children, immunoblot densitometry.

Regarding `O=C(CCCN1CCC(O)(c2ccc(Cl)cc2)CC1)c1ccc(F)cc1` [haldol], the “Gαs levels in PBMCs under treatment” value with Gαs in PBMCs is “decrease”.
For the molecule `NC(=O)CC[C@@H]1NC(=O)[C@H](Cc2ccccc2)NC(=O)[C@H](Cc2ccc(O)cc2)NC(=O)[C@@H](N)CSSC[C@@H](C(=O)N2CCC[C@H]2C(=O)N[C@@H](CCCN=C(N)N)C(=O)NCC(N)=O)NC(=O)[C@H](CC(N)=O)NC1=O` [Vasopressin, Arginine vasopressin], in the experiment on Gαq mRNA in PBMCs (setting [1]), the “Gαq mRNA (% of control), Autism Vasopressin” value was 7.45 % of control and 48.7 % of control and 96.6 % of control (2×) and 171.8 % of control and 43.6 % of control and 37.48 % of control and 13.87 % of control and 12.07 % of control and 24.1 % of control and 7.99 % of control and 48.3 % of control and 90.1 % of control and 90.18 % of control and 107.8 % of control and 8.62 % of control and 1.94 % of control and 30.78 % of control. Also, the “Gαq mRNA (% of control), Control Vasopressin” value with Gαq mRNA in PBMCs (setting [2]) is 9.17 % of control and 3.36 % of control and 54.5 % of control and 23.7 % of control and 1.04 % of control and 12.94 % of control and 1.11 % of control and 100.5 % of control and 59.8 % of control and 146.7 % of control and 45.1 % of control and 16.42 % of control and 24.87 % of control and 26.4 % of control. In the experiment on Gαq mRNA in PBMCs (setting [3]), the “Gαq mRNA (% of control), Average, Autism Vasopressin” value is 52.11 % of control. Also, in the experiment with Gαq mRNA in PBMCs (setting [4]), the “Gαq mRNA (% of control), Average, Control Vasopressin” value was 37.5 % of control. Moreover, the “change of Gαq mRNA on vasopressin exposure” value in the experiment on Gαq mRNA in PBMCs (healthy patients) was “increased”. The “Gαs protein expression after vasopressin exposure, patients with ASD lower than patients without ASD” value with Gαs protein in PBMCs (setting [5]) is given as “about 37%”. Also, the “Gαs protein expression, Autism Vasopressin” value in the experiment on Gαs protein in PBMCs (setting [6]) is 0.16 and 0.03 (2×) and 0.04 and 0.01 and 0.14 and 0 and 0.33 (2×) and 0.69 and 0.83 and 0.86 and 0.52 and 0.7. Moreover, the “Gαs protein expression, Control Vasopressin” value with Gαs protein in PBMCs (setting [7]) is 0.3 and 0.83 and 0.35 and 1.63 and 0.33 and 0.19 and 0.48 and 0.29 and 1.26 and 0.51 and 0.62 and 0.67. In addition, the “Gαs protein expression, Average, Autism Vasopressin” value in the experiment with Gαs protein in PBMCs (average of autism group) was “.33”. Further, in the experiment on Gαs protein in PBMCs (average of control group), the “Gαs protein expression, Average, Control Vasopressin” value was “.54”. Also, the “change of Gαs protein expression on vasopressin exposure” value was “down-regulation trend; also recorded: decreased” in the experiment with Gαs protein in PBMCs (patients with ASD) and “appeared to be higher; also recorded: up-regulating” in the experiment on Gαs protein in PBMCs (patients without ASD). For the same molecule, the “Gαs mRNA (% of control), Autism Vasopressin” value in the experiment with Gαs mRNA in PBMCs (setting [1]) was 59.5 % of control and 151.6 % of control and 373.2 % of control and 65.9 % of control and 181.8 % of control and 66.3 % of control and 52.6 % of control and 77 % of control and 62 % of control and 54 % of control and 21.1 % of control and 114.8 % of control and 144.4 % of control and 67.6 % of control and 99.7 % of control and 147.3 % of control and 78.5 % of control and 43.7 % of control and 214.4 % of control. Moreover, the “Gαs mRNA (% of control), Control Vasopressin” value in the experiment on Gαs mRNA in PBMCs (setting [2]) is 200 % of control and 245.8 % of control and 137.6 % of control and 66.3 % of control and 42.7 % of control and 58.3 % of control and 120 % of control and 31.9 % of control and 33.1 % of control and 66.1 % of control and 30.8 % of control. For the same molecule, in the experiment on Gαs mRNA in PBMCs (setting [3]), the “Gαs mRNA (% of control), Average, Autism Vasopressin” value is 109.1 % of control. The “Gαs mRNA (% of control), Average, Control Vasopressin” value in the experiment on Gαs mRNA in PBMCs (setting [4]) is 93.9 % of control. For the same molecule, the “change of Gαs mRNA on vasopressin exposure” value with Gαs mRNA in PBMCs (healthy patients) is “increased”. Also, the “Gαq protein expression after vasopressin exposure, patients with ASD less than patients without ASD” value in the experiment on Gαq protein in PBMCs (setting [5]) is “about 28%”. In the experiment with Gαq protein in PBMCs (setting [6]), the “Gαq protein expression, Autism Vasopressin” value was 4.17 and 12.58 and 0 (5×) and 9.53 and 0.36 and 1.26 and 4.64 and 4.01 and 0.19 and 1.13. Moreover, the “Gαq protein expression, Control Vasopressin” value with Gαq protein in PBMCs (setting [7]) was 7.84 and 0.25 and 0.6 and 0 and 10.56 and 0.26 and 1.86 and 3.96 and 0.35 and 2.86 and 2.81 and 13.29. Besides, in the experiment on Gαq protein in PBMCs (average of autism group), the “Gαq protein expression, Average, Autism Vasopressin” value came to 2.71. The “Gαq protein expression, Average, Control Vasopressin” value with Gαq protein in PBMCs (average of control group) was determined as 3.72. For the same molecule, the “change of Gαq protein expression on vasopressin exposure” value with Gαq protein in PBMCs (patients with ASD) is “down-regulation trend; also recorded: decreased”; in the experiment with Gαq protein in PBMCs (patients without ASD), “appeared to be higher; also recorded: up-regulating”.
